Columns and labels:
cultured liver cells = test: Reversal of ethanol damage in cultured liver cells (phosphatidylcholine biosynthesis); type: cell-based; conditions: 96 h
Experimental: The use of vitamin E phosphate/phosphatidylcholine to effect reversal of damage from ethanol on liver cells was then studied. The cultured liver cells were incubated with 25 mM or 50 mM ethanol for 96 hours, at which time there is significant reduction in liver cell function (phosphatidylcholine biosynthesis). The effect of adding vitamin E phosphate/phosphatdylcholine after 72 hours was studied, and 24 hours later (96 hours after initial exposure to ethanol) values were obtained.

Liver cells [1] = test: Phosphatidylcholine formation in liver cells dysfunctional due to ethanol exposure; type: cell-based; conditions: cells exposed to ethanol
Experimental: Liver cells which had become dysfunctional due to exposure to ethanol were incubated 24 hours with vitamin E phosphate/phosphatidylcholine liposomes. The pmoles of phosphatidylcholine formed per minute/mg protein was then measured with the following results: […]

Liver cells [2] = test: Incorporation of labeled choline into phosphatidylcholine (PC biosynthesis) by liver cells with iron; type: cell-based
Text: The study of effects on liver cells was also considered based on evaluation of effect on increase in the incorporation of labeled choline into phosphatidylcholine (phosphatidylcholine biosynthesis) by liver cells. Vitamin E phosphate/phosphatidylcholine produced greater beneficial effects than either vitamin E phosphate or phosphatidylcholine. [table]

[3] = tested on: isolated liver cells (1000×g cell fraction); type: cell-based; conditions: phosphatidylcholine 100 μM, vitamin E phosphate 50 μm; for LCLP % control + SEM: in presence of 1 mM iron
male albino mice = test: Allyl alcohol-induced liver injury in mice (SGPT); type: in vivo; conditions: allyl alcohol alone, 50 mg/kg single intraperitoneal dose, 4 hours
Experimental: Influence of vitamin E phosphate/phosphatidylcholine liposomes (see example 1) on Allyl alcohol-induced liver injury was evaluated in male albino mice.

[4] = Precipitation in the presence of divalent metal salts; type: physicochemical
Text: Liposomes were made using salts of the vitamin E phosphate and phosphatidylcholine. These salts were protected by liposomes to avoid precipitation in the presence of 2^+ metal ions.

[5] = in presence of 1 mM iron, phosphatidylcholine 100 μM, vitamin E phosphate 50 μm

Compound: CCO [ETOH, ethanol]
- phosphatidylcholine biosynthesis % control ± SEM (cultured liver cells; 25 mM ethanol alone): 38 ± 2 % control
- phosphatidylcholine biosynthesis % control ± SEM (cultured liver cells; 50 mM ethanol alone): 22 ± 1 % control
- pmoles of phosphatidylcholine formed per minute/mg protein (Liver cells [1]): 25 pmoles per minute/mg protein
- pmoles of phosphatidylcholine formed per minute/mg protein (Liver cells [1]; then incubated 24 hours in water): 27 pmoles per minute/mg protein

Compound: [Fe] [iron]
- PC biosynthesis % control + SEM (Liver cells [2]; 1 mM iron alone): 254 ± 9 % control

Compound: phosphatidylcholine [PC]
- PC biosynthesis % control + SEM (Liver cells [2]; [5]): 167 ± 4 % control
- LCLP % control + SEM [3]: 281 ± 4 % control
- iron-dependent lipid peroxidation in isolated liver cells (result in words) [3]: significantly reduced

Compound: C=CCO [Allyl alcohol]
- SGPT % of control ± SEM (male albino mice): 330 ± 15 % of control

Compound: Cc1c(C)c2c(c(C)c1OP(=O)(O)O)CCC(C)(CCCC(C)CCCC(C)CCCC(C)C)O2 (stereo not shown) [VEP, vitamin E phosphate]
- behaviour in the presence of divalent metal salts [4]: precipitated
- PC biosynthesis % control + SEM (Liver cells [2]; [5]): 145 ± 4 % control
- LCLP % control + SEM [3]: 167 ± 3 % control
- iron-dependent lipid peroxidation in isolated liver cells (result in words) [3]: significantly reduced

Reference: patent publication US20050181021A1, “Vitamin E phosphate/phosphatidycholine liposomes to protect from or ameliorate cell damage” (priority 1992, published 2005)
